Experimental data as given in patent US20230085307A1, “PYRIDAZINONE COMPOUND AND HERBICIDE” (NISSAN CHEMICAL CORPORATION, priority 2019, published 2023).

Assays:
[1] = tested on: southern crabgrass; test: Test Example 5: herbicidal effect by foliage application, plastic box (Table 20, symbol F); type: in vivo, southern crabgrass (Digitaria ciliaris); settings: foliage application
Procedure, shortened: (§1)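 Plants sown in sterilized diluvial soil and grown 14 days in a greenhouse at 25° C to 30° C, then sprayed on the foliage with the compound's emulsion diluted in water to a predetermined herbicide amount. Injury to weeds and crops scored three weeks after application on a visual rating scale.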

[2] = tested on: Italian ryegrass; test: Test Example 5: herbicidal effect by foliage application, plastic box (Table 20, symbol K); type: in vivo, Italian ryegrass (Lolium multiflorum); settings: foliage application
Procedure, shortened: as §1

[3] = tested on: velvetleaf; test: Test Example 4: herbicidal effect by soil treatment (Table 19, symbol M); type: in vivo, velvetleaf (Abutilon theophrasti); settings: for herbicidal effect on M: velvetleaf: amount of applied herbicide 320 g/ha
Procedure, shortened: (§2)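 Seeds were sown in sterilized diluvial soil and covered with about 1.5 cm of soil. An emulsion formulation diluted with water to a predetermined herbicide amount was sprayed evenly onto the soil surface. Plants grew in a greenhouse at 25° C. to 30° C., and the effect was scored three weeks after application using criteria from an earlier test.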

[4] = tested on: redroot pigweed; test: Test Example 4: herbicidal effect by soil treatment (Table 19, symbol N); type: in vivo, redroot pigweed (Amaranthus retroflexus); settings: for herbicidal effect on N: redroot pigweed: amount of applied herbicide 320 g/ha
Procedure, shortened: as §2

[5] = tested on: blackgrass; test: Test Example 5: herbicidal effect by foliage application, plastic box (Table 20, symbol J); type: in vivo, blackgrass (Alopecurus myosuroides); settings: foliage application
Procedure, shortened: as §1

[6] = tested on: late watergrass; test: Test Example 1: herbicidal activity, application before weed generation under submerged conditions (Table 16, symbol A); type: in vivo, late watergrass (Echinochloa oryzicola); settings: for Herbicidal effect on A: late watergrass (grade 0-5): 320 g/ha applied herbicide
Procedure, shortened: (§3)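 Alluvial soil was flooded to 4 cm depth, weed seeds were sown mixed and 2.5-leaf rice seedlings were transplanted. On sowing day, the compound's emulsion, diluted in water to a set dose, was applied to the water surface. Plants grew at 25–30 °C and were scored 0–5 after three weeks.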

[7] = tested on: Japanese bulrush; test: Test Example 2: herbicidal activity, application during weed generation under submerged conditions (Table 17, symbol B); type: in vivo, Japanese bulrush (Schoenoplectus juncoides); settings: application during weed generation, submerged conditions
Procedure, shortened: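 Mixed weed seedlings in alluvial soil under a 4 cm water layer, greenhouse-grown at 25–30° C. Compound given as a diluted emulsion into the floodwater at the 1–2 leaf stage; response graded after three weeks.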

[8] = tested on: green foxtail; test: Test Example 4: herbicidal effect by soil treatment (Table 19, symbol G); type: in vivo, green foxtail (Setaria viridis); settings: for herbicidal effect on G: green foxtail: amount of applied herbicide 320 g/ha
Procedure, shortened: as §2

[9] = tested on: redroot pigweed; test: Test Example 5: herbicidal effect by foliage application, plastic box (Table 20, symbol N); type: in vivo, redroot pigweed (Amaranthus retroflexus); settings: foliage application
Procedure, shortened: as §1

[10] = tested on: barnyard grass; test: Test Example 3: herbicidal effect by foliage application, Wagner pot (Table 18, symbol H); type: in vivo, barnyard grass (Echinochloa crus-galli); settings: for herbicidal effect on H: barnyard grass: amount of applied herbicide 320 g/ha; for herbicidal effect on H (barnyard grass), rating 0-5: 320 g/ha
Procedure, shortened: (§4)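 Plants were sown in alluvial soil held under 0.1–0.5 cm standing water and grown 14 days in a greenhouse at 25–30 °C. An emulsifiable formulation, water-diluted to the set dose, was then sprayed onto the foliage, and effects were scored three weeks later using previously defined criteria.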

[11] = tested on: oval-leafed pondweed; test: Test Example 1: herbicidal activity, application before weed generation under submerged conditions (Table 16, symbol C); type: in vivo, oval-leafed pondweed (Monochoria vaginalis); settings: for Herbicidal effect on C: oval-leafed pondweed (grade 0-5): 320 g/ha applied herbicide
Procedure, shortened: as §3

[12] = tested on: green foxtail; test: Test Example 5: herbicidal effect by foliage application, plastic box (Table 20, symbol G); type: in vivo, green foxtail (Setaria viridis); settings: foliage application
Procedure, shortened: as §1

[13] = tested on: barnyard grass; test: Test Example 4: herbicidal effect by soil treatment (Table 19, symbol H); type: in vivo, barnyard grass (Echinochloa crus-galli); settings: for herbicidal effect on H: barnyard grass: amount of applied herbicide 320 g/ha
Procedure, shortened: as §2

[14] = tested on: chickweed; test: Test Example 4: herbicidal effect by soil treatment (Table 19, symbol P); type: in vivo, common chickweed (Stellaria media); settings: for herbicidal effect on P: chickweed: amount of applied herbicide 320 g/ha
Procedure, shortened: as §2

[15] = tested on: chickweed; test: Test Example 5: herbicidal effect by foliage application, plastic box (Table 20, symbol P); type: in vivo, common chickweed (Stellaria media); settings: foliage application
Procedure, shortened: as §1

[16] = tested on: rice flat sedge; test: Test Example 3: herbicidal effect by foliage application, Wagner pot (Table 18, symbol E); type: in vivo, rice flat sedge (Cyperus iria); settings: for herbicidal effect on E: rice flat sedge: amount of applied herbicide 320 g/ha; for herbicidal effect on E (rice flat sedge), rating 0-5: 320 g/ha
Procedure, shortened: as §4

[17] = 274 g/ha, three weeks after application
[18] = amount of applied herbicide 274 g/ha
[19] = 320 g/ha, evaluated three weeks after application
[20] = AAH 320 g/ha, three weeks after application

Row | SMILES | herbicidal effect on F: southern crabgrass (criteria 0-5) [1, 19] | herbicidal effect on K: Italian ryegrass (criteria 0-5) [2, 19] | herbicidal effect on M: velvetleaf [3] | herbicidal effect on N: redroot pigweed [4] | herbicidal effect on J: blackgrass (criteria 0-5) [5, 19] | Herbicidal effect on A: late watergrass (grade 0-5) [6] | herbicidal effect rating, B: Japanese bulrush ([7]; AAH 320 g/ha) | herbicidal effect on G: green foxtail [8] | herbicidal effect on N: redroot pigweed (criteria 0-5) [9, 19] | herbicidal effect on H: barnyard grass [10] | Herbicidal effect on C: oval-leafed pondweed (grade 0-5) [11] | herbicidal effect on G: green foxtail (criteria 0-5) [12, 19] | herbicidal effect on H: barnyard grass [13] | herbicidal effect on P: chickweed [14] | herbicidal effect on P: chickweed (criteria 0-5) [15, 19] | herbicidal effect on E: rice flat sedge [16] | herbicidal effect on H (barnyard grass), rating 0-5 [10] | herbicidal effect on E (rice flat sedge), rating 0-5 [16] | other results
1 | COc1ccccc1-c1sc2cc(C)ccc2c1-c1c(O)c(C)nn(C)c1=O [3-049] |  |  |  |  |  |  |  |  |  |  |  |  |  |  |  |  |  |  | F: southern crabgrass, herbicidal effect grade [1, 17]: 5 (Herbicidal rate of 90% or more (almost completely withered)); K: Italian ryegrass, herbicidal effect grade [2, 17]: 5 (Herbicidal rate of 90% or more (almost completely withered)); M: velvetleaf, herbicidal effect grade [3, 18]: 0 (Herbicidal rate of 5% or less (almost no effect)); N: redroot pigweed, herbicidal effect grade [4, 18]: 4 (Herbicidal rate of 70% or more and less than 90%); J: blackgrass, herbicidal effect grade [5, 17]: 5 (Herbicidal rate of 90% or more (almost completely withered)); Herbicidal effect, A: late watergrass [6, 18]: 5 (Herbicidal rate of 90% or more (almost completely withered)); herbicidal effect rating, B: Japanese bulrush ([7]; AAH 274 g/ha): 3 (Herbicidal rate of 40% or more and less than 70%); G: green foxtail, herbicidal effect grade [8, 18]: 3 (Herbicidal rate of 40% or more and less than 70%); N: redroot pigweed, herbicidal effect grade [9, 17]: 5 (Herbicidal rate of 90% or more (almost completely withered)); herbicidal effect on barnyard grass (H) ([10]; 274 g/ha): 5 (Herbicidal rate of 90% or more (almost completely withered)); Herbicidal effect, C: oval-leafed pondweed [11, 18]: 3 (Herbicidal rate of 40% or more and less than 70%); G: green foxtail, herbicidal effect grade [12, 17]: 5 (Herbicidal rate of 90% or more (almost completely withered)); H: barnyard grass, herbicidal effect grade [13, 18]: 3 (Herbicidal rate of 40% or more and less than 70%); P: chickweed, herbicidal effect grade [14, 18]: 4 (Herbicidal rate of 70% or more and less than 90%); P: chickweed, herbicidal effect grade [15, 17]: 5 (Herbicidal rate of 90% or more (almost completely withered)); herbicidal effect on rice flat sedge (E) ([16]; 274 g/ha): 3 (Herbicidal rate of 40% or more and less than 70%)
2 | CCCC(=O)Oc1c(C)nn(C)c(=O)c1-c1c(-c2cccc(OCC(C)C)c2)sc2ccc(F)cc12 [2-222] | 5 (Herbicidal rate of 90% or more (almost completely withered)) | 4 (Herbicidal rate of 70% or more and less than 90%) | 3 (Herbicidal rate of 40% or more and less than 70%) | 5 (Herbicidal rate of 90% or more (almost completely withered)) | 4 (Herbicidal rate of 70% or more and less than 90%) | 5 (Herbicidal rate of 90% or more (almost completely withered)) | 3 (Herbicidal rate of 40% or more and less than 70%) | 2 (Herbicidal rate of 20% or more and less than 40%) | 5 (Herbicidal rate of 90% or more (almost completely withered)) | 5 (Herbicidal rate of 90% or more (almost completely withered)) | 4 (Herbicidal rate of 70% or more and less than 90%) | 5 (Herbicidal rate of 90% or more (almost completely withered)) | 5 (Herbicidal rate of 90% or more (almost completely withered)) | 2 (Herbicidal rate of 20% or more and less than 40%) | 5 (Herbicidal rate of 90% or more (almost completely withered)) | 4 (Herbicidal rate of 70% or more and less than 90%) |  |  | 
3 | Cc1nn(C)c(=O)c(-c2c(-c3ccc(OCC4CC4)cc3)sc3ccc(F)cc23)c1O [2-060] |  |  |  |  |  | 0 (Herbicidal rate of 5% or less (almost no effect)) | 3 (Herbicidal rate of 40% or more and less than 70%) |  |  |  | 4 (Herbicidal rate of 70% or more and less than 90%) |  |  |  |  |  | 3 (Herbicidal rate of 40% or more and less than 70%) | 5 (Herbicidal rate of 90% or more (almost completely withered)) | herbicidal effect on F: southern crabgrass [1, 19]: 4 (Herbicidal rate of 70% or more and less than 90%); herbicidal effect on K: Italian ryegrass [2, 19]: 0 (Herbicidal rate of 5% or less (almost no effect)); herbicidal effect rating, M: velvetleaf ([3]; 320 g/ha): 0 (Herbicidal rate of 5% or less (almost no effect)); herbicidal effect rating, N: redroot pigweed ([4]; 320 g/ha): 5 (Herbicidal rate of 90% or more (almost completely withered)); herbicidal effect on J: blackgrass [5, 19]: 3 (Herbicidal rate of 40% or more and less than 70%); herbicidal effect rating, G: green foxtail ([8]; 320 g/ha): 1 (Herbicidal rate of 5% or more and less than 20%); herbicidal effect on N: redroot pigweed [9, 19]: 5 (Herbicidal rate of 90% or more (almost completely withered)); herbicidal effect on G: green foxtail [12, 19]: 3 (Herbicidal rate of 40% or more and less than 70%); herbicidal effect rating, H: barnyard grass ([13]; 320 g/ha): 3 (Herbicidal rate of 40% or more and less than 70%); herbicidal effect rating, P: chickweed ([14]; 320 g/ha): 1 (Herbicidal rate of 5% or more and less than 20%); herbicidal effect on P: chickweed [15, 19]: 5 (Herbicidal rate of 90% or more (almost completely withered))
4 | Cc1nn(C)c(=O)c(-c2c(-c3ccc(OCC(F)(F)F)cc3)sc3ccccc23)c1O [1-140] |  |  |  |  |  | 3 (Herbicidal rate of 40% or more and less than 70%) | 3 (Herbicidal rate of 40% or more and less than 70%) |  |  |  | 0 (Herbicidal rate of 5% or less (almost no effect)) |  |  |  |  |  | 5 (Herbicidal rate of 90% or more (almost completely withered)) | 5 (Herbicidal rate of 90% or more (almost completely withered)) | F: southern crabgrass, herbicidal effect [1, 20]: 4 (Herbicidal rate of 70% or more and less than 90%); K: Italian ryegrass, herbicidal effect [2, 20]: 5 (Herbicidal rate of 90% or more (almost completely withered)); M: velvetleaf, herbicidal effect rating ([3]; AAH 320 g/ha): 5 (Herbicidal rate of 90% or more (almost completely withered)); N: redroot pigweed, herbicidal effect rating ([4]; AAH 320 g/ha): 5 (Herbicidal rate of 90% or more (almost completely withered)); J: blackgrass, herbicidal effect [5, 20]: 4 (Herbicidal rate of 70% or more and less than 90%); G: green foxtail, herbicidal effect rating ([8]; AAH 320 g/ha): 5 (Herbicidal rate of 90% or more (almost completely withered)); N: redroot pigweed, herbicidal effect [9, 20]: 4 (Herbicidal rate of 70% or more and less than 90%); G: green foxtail, herbicidal effect [12, 20]: 5 (Herbicidal rate of 90% or more (almost completely withered)); H: barnyard grass, herbicidal effect rating ([13]; AAH 320 g/ha): 5 (Herbicidal rate of 90% or more (almost completely withered)); P: chickweed, herbicidal effect rating ([14]; AAH 320 g/ha): 4 (Herbicidal rate of 70% or more and less than 90%); P: chickweed, herbicidal effect [15, 20]: 5 (Herbicidal rate of 90% or more (almost completely withered))
5 | Cc1nn(C)c(=O)c(-c2c(-c3ccc(SC(C)C)cc3)sc3ccc(F)cc23)c1O [2-252] | 4 (Herbicidal rate of 70% or more and less than 90%) | 5 (Herbicidal rate of 90% or more (almost completely withered)) | 2 (Herbicidal rate of 20% or more and less than 40%) | 5 (Herbicidal rate of 90% or more (almost completely withered)) | 5 (Herbicidal rate of 90% or more (almost completely withered)) | 3 (Herbicidal rate of 40% or more and less than 70%) | 3 (Herbicidal rate of 40% or more and less than 70%) | 1 (Herbicidal rate of 5% or more and less than 20%) | 5 (Herbicidal rate of 90% or more (almost completely withered)) | 5 (Herbicidal rate of 90% or more (almost completely withered)) | 1 (Herbicidal rate of 5% or more and less than 20%) | 4 (Herbicidal rate of 70% or more and less than 90%) | 3 (Herbicidal rate of 40% or more and less than 70%) | 5 (Herbicidal rate of 90% or more (almost completely withered)) | 5 (Herbicidal rate of 90% or more (almost completely withered)) | 5 (Herbicidal rate of 90% or more (almost completely withered)) |  |  | 
